Experimental data as given in US10160812B2, “Bispecific HER2 antibodies” (MedImmune, LLC, priority 2014, dated 2018).

T1: human HER4 (Homo sapiens, UniProt Q15303)
T1 construct: recombinant extracellular domain proteins: human EGFR, human HER2, human HER3, human HER4, mouse Her2, or cynomolgus monkey Her2
T1 sequence (Q15303 26-651 limits assumed): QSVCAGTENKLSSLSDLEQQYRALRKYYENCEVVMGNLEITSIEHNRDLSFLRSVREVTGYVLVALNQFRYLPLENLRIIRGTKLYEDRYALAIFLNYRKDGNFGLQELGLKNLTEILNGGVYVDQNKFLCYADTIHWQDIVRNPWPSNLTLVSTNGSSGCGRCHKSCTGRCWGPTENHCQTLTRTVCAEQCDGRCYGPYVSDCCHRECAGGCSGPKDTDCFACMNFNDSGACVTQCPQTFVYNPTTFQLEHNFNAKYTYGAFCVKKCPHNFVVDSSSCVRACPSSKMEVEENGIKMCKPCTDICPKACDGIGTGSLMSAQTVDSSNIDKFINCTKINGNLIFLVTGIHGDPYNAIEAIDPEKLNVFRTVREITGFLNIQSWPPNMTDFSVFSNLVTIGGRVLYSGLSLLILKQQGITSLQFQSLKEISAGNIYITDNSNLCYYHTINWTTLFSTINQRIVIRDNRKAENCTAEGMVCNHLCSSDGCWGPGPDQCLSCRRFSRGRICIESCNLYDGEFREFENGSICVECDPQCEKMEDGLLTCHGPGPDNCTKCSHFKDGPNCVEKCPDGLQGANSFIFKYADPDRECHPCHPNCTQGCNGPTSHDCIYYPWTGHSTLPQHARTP

B1: 39S: lead optimized monoclonal antibody derived from the 1.39.1 antibody; VH SEQ ID NO:15, VL SEQ ID NO:16 (antibody, V domains shown)
VH: EVQLVESGGGLVKPGGSLRLSCAASGFTFSSYSMSWVRQAPGKGLEWVSSISSSSSYIYYADSVKGRFTISRDNAKNSLYLQMNSLRAEDTAVYYCARGGDAYNYYYFDYWGQGTLVTVSS
VL: DIVMTQTPLSLSVTPGQPASISCKSSQSVFFRSNNKNILAWYLQKPGQPPQLLIYWASSRESGVPDRFSGSGSGTDFTLKISRVEAEDVGVYYCQQYFGSPFTFGPGTKVDIK

How the values were obtained:
ST455B model = experiment: PDX tumor model (triple-negative, HER2 IHC 1+); format: in vivo, Athymic nude mice; settings: Bs2-4T at 3 mg/kg
Procedure: (§1) All mouse experiments were carried out in compliance with the guidelines published by the Association for Assessment and Accreditation of Laboratory Animal Care (AAALAC) and protocols approved by the MedImmune Institutional Animal Care and Use Committee. Athymic nude mice between 4-8 weeks of age were used in the studies. In subcutaneous CBX models, animals were injected unilaterally on the right flank with tumor cells harvested from culture at a specific passage lot. In orthotopic CBX models, xenografts were established by injecting 5×10^6 cells per mouse (suspended in 50% matrigel) into the mammary fat pad on the right flank of animals. In PDX models, animals are implanted unilaterally on the flank with tumor fragments harvested from host animals each implanted from a specific passage lot. Pre-study tumor volumes were recorded for each experiment beginning approximately one week prior to its estimated start date. When tumors reach the appropriate tumor volume initiation (TVI) range (typically 150-250 mm^3), animals are randomized into treatment and control groups and dosing initiated. […] Animals were observed daily and tumor dimensions and body weights were measured and recorded twice weekly. Tumor volumes are calculated using the following formula: tumor volume=π÷6 (length×width^2). […]

ST996 model = experiment: PDX tumor model (triple-negative, HER2 IHC 1+); format: in vivo, Athymic nude mice; settings: Bs2-2T at 3 mg/kg
Procedure: as §1

NCI-N87 = settings: read-out: In vitro potency (EC50 in pM); NCI-N87, 3 to 4 days
Procedure: A panel of human cancer cell lines expressing various levels of HER2 was used to evaluate the cytotoxic activity of bispecific ADC (Table 5 in Example 1). Briefly, cells were harvested, resuspended, and plated in serum-containing culture media at a density of 5,000 to 20,000 per well (depending on the growth kinetics of each cell line) of 96-well plates in a volume of 100 μL. A 2× concentration of each dose of antibody or ADC to be tested was prepared by diluting the test articles in culture medium. One hundred microliters of each test article was added to cells in triplicate such that the final dose curve ranged from 5 nM down to 0.08 pM in a stepwise 1:4 serial dilution series. The treated cells were incubated at 37° C./5% CO2 for 3 to 4 days, depending on the growth kinetics of each particular cell line. Cell viability was determined using Cell Titer Glo according to manufacturer's instructions. Data are analyzed by the GraphPad Prism software and presented as percent growth inhibition relative to the untreated control. EC50 values were determined using Sigmoidal non-linear regression analysis with GraphPad Prism software and were summarized in Table 6.

[1] = tested on: T-DM1 resistant NCI-N87 tumor model; experiment: In vivo tumor model with acquired T-DM1 resistance; design: species or system mice; settings: weekly intravenous dosing, 3 mg/kg (pertuzumab 10 mg/kg), total of 4 doses
Procedure: To establish an in vivo tumor model with acquired T-DM1 resistance, the T-DM1-resistant NCI-N87 cells were injected subcutaneously into the immune-deficient mice. The tumor-bearing mice were treated with 3 mg/kg of T-DM1. It appeared that the in vitro T-DM1 resistance was not fully translated into the in vivo resistance, reflected by considerable variations in tumor growth among animals. Thus, mice with large refractory tumors (˜1000 mm^3 in volume) were selected and the tumor tissue fragments were passaged to new mice until the tumors grew consistently in the presence of weekly treatment of 3 mg/kg T-DM1.

MCF7-GTU = experiment: In vitro cytotoxic activity (Cell Titer Glo); format: cell-based, human; settings: 3 to 4 days
SKOV-3 = experiment: In vitro cytotoxic activity (Cell Titer Glo); format: cell-based, human; settings: SKOV-3, 3 to 4 days; read-out: In vitro potency (EC50 in pM)
human HER3 = target: T2, human HER3 (Homo sapiens, UniProt P21860); experiment: Capture ELISA binding specificity / species cross-reactivity; settings: recombinant extracellular domain protein
T2 construct: recombinant extracellular domain proteins: human EGFR, human HER2, human HER3, human HER4, mouse Her2, or cynomolgus monkey Her2
From the text: (§2) To determine whether 39S retains the binding specificity and species cross-reactivity of its parental antibody AZ1.39.1, binding of 39S to the receptors of human ErbB family (EGFR, HER2, HER3, and HER4), the mouse Her2, and the cynomolgus monkey Her2 was examined by capture ELISA. Briefly, 96-well plates were coated with one of the following recombinant extracellular domain proteins: human EGFR, human HER2, human HER3, human HER4, mouse Her2, or cynomolgus monkey Her2. Antibody to be tested was prepared by diluting in a stepwise 1:3 serial dilution ranging from 50 nM down to 0.28 pM and then added to the wells in duplicate. After one hour of incubation, plates were washed, and goat anti-human IgG Fab HRP-conjugated secondary antibody was added to each well and the plates were incubated for 1 hour. The plates were washed and TMB substrate was added and incubated for 5-20 min to allow color development. The stop solution was added to the wells at the end of reaction and the plates were read at 450 nm. Binding signal (absorbance at 450 nm) was plotted against antibody concentration using Prism software.
(§3) Binding specificity and species cross-reactivity of bispecific antibodies to the recombinant extracellular domain protein of human EGFR, human HER2, human HER3, human HER4, mouse Her2, or cynomolgus monkey Her2 were determined by capture ELISA as described in Example 1.
(§4) To determine whether the conjugation of tubulysin 1508 alters antigen binding specificity and species cross-reactivity, binding activity of bispecific ADC to the recombinant extracellular domain protein of human EGFR, human HER2, human HER3, human HER4, mouse Her2, and cynomolgus monkey Her2 were confirmed by capture ELISA as described in Example 1.

human HER4 = target: T1, human HER4; experiment: as above; settings: recombinant extracellular domain protein
From the text: as §2, §3, §4

cynomolgus monkey Her2 = experiment: as above; settings: recombinant extracellular domain protein
From the text: as §2, §3, §4

human EGFR = target: T3, human EGFR (Homo sapiens, UniProt P00533); experiment: as above; settings: recombinant extracellular domain protein
T3 construct: recombinant extracellular domain proteins: human EGFR, human HER2, human HER3, human HER4, mouse Her2, or cynomolgus monkey Her2
From the text: as §2, §3, §4

NCI-N87 cell = experiment: Proliferation inhibition assay in serum-containing media; format: cell-based, human
Procedure: Cell viability was determined using Cell Titer Glo from Promega according to manufacturer's instructions.

Molecule | in vivo activity (tumor growth) (ST455B model) | in vivo activity (tumor growth) (ST996 model) | EC50 (NCI-N87) [pM] | in vivo activity (tumor growth) [1] | In vitro potency (EC50 in pM) (MCF7-GTU) | EC50 (SKOV-3) [pM] | binding by capture ELISA (human HER3) | binding by capture ELISA (human HER4) | binding by capture ELISA (cynomolgus monkey Her2) | binding by capture ELISA (human EGFR) | inhibition of cell proliferation (NCI-N87 cell) | inhibition of cell growth in combination (NCI-N87 cell; combined with trastuzumab or pertuzumab)
T-DM1 [reference compound] | no activity | no activity | 275 | resistant | Inactive | 116 | – | – | – | – | – | –
B1 | – | – | – | – | – | – | not | not | can bind | not | limited activity | strong synergistic effect
